Legend:
[1] = system: HIV-1 single-round infectious reporter virus; assay: Anti-HIV single cycle infection assay (luciferase reporter virus, HeLa/CD4/CCR5 cells); format: cell-based; details: Human immunodeficiency virus 1, HeLa-CD4/CCR5, 72 h, read-out: Anti-HIV single cycle infection EC50
Method: EC50 values show concentration of compound needed to inhibit 50% HIV viral replication.
Single-round infectious reporter virus was produced by co-transfecting human embryonic Kidney 293 cells with an HIV-1 envelope DNA expression vector and a proviral cDNA containing an envelope deletion mutation and the luciferase reporter gene inserted in place of HIV-1 nef sequences (Chen, 1994). Transfections were performed using LipofectAMINE PLUS reagent as described by the manufacturer (Life Technologies, Gaithersburg, Md.). The resulting reporter viruses are then used to infect HeLa/CD4/CCR5 cells in the following manner. Serial diluted compound was added to HeLa/CD4/CCR5 cells plated in 96 well plates at a cell density of 5×10^4 cells per well in 100 μl Dulbecco's Modified Eagle Medium containing 10% fetal Bovine serum. One hundred microliter of single-round infectious reporter virus in Dulbecco's Modified Eagle Medium was then added to the plated cells and compound at a multiplicity of infection (MOI) of 0.01. Samples were harvested 72 hours after infection and viral infection was monitored by measuring luciferase expression from viral DNA in the infected cells using a luciferase reporter gene assay kit as described by the manufacturer.

gp120JRFL/CD4 = gp120JRFL/CD4 (Human immunodeficiency virus 1, UniProt Q75760); assay: gp120/CD4 binding assay (ELISA); set-up: species or system HIV-1
Method: The effect of BMS-806 on the gp120/CD4 binding. The gp120JRFL in supernatant was captured onto anti-gp120 antibody (D7324) coated plate. The compound and soluble CD4 were added to the plate simultaneously and CD4 bound to gp120 was detected by ELISA using anti-CD4 antibody OKT4 as a primary antibody and the secondary antibody goat-anti-mouse-peroxidase conjugate. Value are the means±S.E.M which represent multiple separate experiments.
IC50 values show concentration of compound needed to inhibit 50% of binding of gp120 and CD4.
The gp120 capturing ELISA methods was derived from Moore et al (42). Briefly, the 96 well assay plates (Immulon 4, Dynatech Technologies Inc. Chantilly, Va.) were coated overnight at 4° C. with 100 μl per well of 10 ug/ml D7324 solution in 100 mM bicarbonate buffer (pH9.6). The antibody-coated plate was washed twice with TBS (20 mM Tris-HCl, 500 mM NaCl, pH7.5). All wells were blocked with 100 μl of 3% BSA in TBS for ½ hour at room temperature. Excess BSA was removed with three TBS washes. Gp120 (purified or in supernatant) were diluted in buffer C (50 mM Tris-HCl, pH 7.5, 100 mM NaCl, 1% BSA) and added to D7324 coated plate(s) at 100μl/well. After incubating at 37° C. for 2 hours, plate(s) was washes three times with Buffer (20 mM Tris-HCl, 500 mM NaCl, 0.05% Tween-20, pH7.5) and the bound gp120 was detected by Anti-gp120-peroxidase conjugate (Cross-reactive, ImmunoDiagnostics, Inc) at a final dilution of 1:1000 in BufferC. Bound antibody-peroxidase conjugates were detected with TMB solution (Pierce) and the optical density was measured at 450 nm. Known concentration of the purified gp120IIIB (ABI) were used to generate a standard curve for gp120 quantitation.
The assay is similar to the gp120 capturing ELISA method described above with minor modifications.(43). After coating gp120 onto the plates, sCD4 was added to the plate at a final concentration of 200 ng/ml for one hour at room temperature. […] After washing with BufferB, 100 μl of TMB solution was added and the optical density was read at 450 nm.

HIV-1 A0-18 = assay: Activity against laboratory adapted HIV-1 strain A0-18; format: cell-based; details: Human immunodeficiency virus 1
Method: (§1) Viruses and cells: (Method for Table 2 results). T-tropic (X4) strains of laboratory adapted HIV-1 were amplified in MT-2 cells and titered using a virus yield assay (17). The laboratory adapted M-tropic (R5) viruses were grown in macrophages or PM1 cells and p24 ELISA assay was used to detect the virus. The TCID50/ml (tissue culture infectious dose) was calculated by the method of Spearman-Karber. Titration of viral stocks and assaying for compound sensitivity were carried out in the cell lines the viruses were originally amplified in. The 50% inhibitory concentration (EC50) was calculated by using the exponential form of the median effect equation where (Fa)=1/[1+(ED50/drug conc.)^m] (17).

HIV-1 Bal = assay: Activity against laboratory adapted HIV-1 strain Bal; format: cell-based; details: Human immunodeficiency virus 1, BAL, CCR5, Virus Bal
Method: as §1

HIV-1 SF-162 = assay: Activity against laboratory adapted HIV-1 strain SF-162; format: cell-based; details: Human immunodeficiency virus 1, CCR5
Method: as §1

HIV-1 JRFL = assay: Activity against laboratory adapted HIV-1 strain JRFL; format: cell-based; details: Human immunodeficiency virus 1, CCR5
Method: as §1

HIV-1 LAV = assay: Activity against laboratory adapted HIV-1 strain LAV; format: cell-based; details: Human immunodeficiency virus 1
Method: as §1

HIV-1 RF = assay: Activity against laboratory adapted HIV-1 strain RF; format: cell-based
Method: as §1

HIV-1 IIIB = assay: Activity against laboratory adapted HIV-1 strain IIIB; format: cell-based; details: Human immunodeficiency virus 1, IIIB
Method: as §1

[2] = system: laboratory strains of B subtype HIV-1; assay: Activity against panel of laboratory strains of B subtype HIV-1; format: cell-based; details: Human immunodeficiency virus 1, read-out: EC50 values against 11 of the 13 laboratory strains
Method: as §1

HIV-1 Bru = assay: Activity against laboratory adapted HIV-1 strain Bru; format: cell-based; details: Human immunodeficiency virus 1
Method: as §1

HIV = assay: Anti-HIV activity (assay not specified); format: cell-based; details: Human immunodeficiency virus 1, quoted in text
gp120JRFL [3] = assay: Biacore biosensor binding to immobilized gp120; set-up: species or system HIV-1; details: for Biacore signal on gp120-coated surface: compound at 1.5 μM, FIG. 2
Method: GP120JRFL was immobilized on the surface of a CM-chip to a surface density of 12000. Inhibitors prepared in the running buffer was flown over the surface at 30 μl/min. The sensorgram was recorded and normalized against the buffer alone sensorgram, using a Biacore 3000 instrument.
Biacore biosensor evaluation of gp120-inhibitor binding. (See FIG. 2 for results). The selective binding of entry inhibitors with gp120 was evaluated on a Biacore 3000 biosensor. Purified gp120JRFL was immobilized onto the flow cell surface of a CM-5 chip via EDC/NHS activated covalent modification, according to the protocol described by Biacore Inc. (Uppsala, Swiden). The surface density of immobilized gp120 reached 12000-15000 RU. Soluble CD4 and BSA coated surfaces were also immobilized on separate flow cell surfaces as controls.

HIV-1 MN = assay: Activity against laboratory adapted HIV-1 strain MN; format: cell-based
Method: as §1

HIV-1 SF-2 = assay: Activity against laboratory adapted HIV-1 strain SF-2; format: cell-based; details: Human immunodeficiency virus 1
Method: as §1

HIV-1 NL4-3 = assay: Activity against laboratory adapted HIV-1 strain NL4-3; format: cell-based; details: Human immunodeficiency virus 1, NL43
Method: as §1

[4] = system: V1V2V3 loop-deleted gp120JRFL; assay: Binding of [3H]BMS-853 to V1V2V3 loop-deleted gp120; set-up: species or system HIV-1; details: radioactive inhibitor
gp120JRFL [5] = assay: FlashPlate binding of [3H]BMS-853 to gp120, incl. sCD4 competition; set-up: species or system HIV-1; details: radioactive inhibitor
Method: Interaction of gp120JRFL (wild type) with ^3H-BMS-853. FlashPlate was coated with increase amount of gp120 and constant amount of ^3H-BMS-853 (16.5 nM) in BufferC was added to each well and the binding assay was allowed to proceed as described in material and methods. Points are averages of duplicate or triplicate determinations.
Competition binding of ^3H-BMS-853 binding to gp120 by soluble CD4.(sCD4) ^3H-BMS-853 bound to gp120 in the presence of varying amount of sCD4 was determined as described under material and methods. Points shown were obtained in a signal experiment, performed in duplicate. Data were analyzed with Prism computer program. (GraphPad Software, Inc).
FlashPlate assay. The binding of [^3H]BMS-853 to gp120 was performed on FlashPlate (NEN,SMP200). Coating of gp120 onto FlashPlate was essentially the same as described for gp120 capturing ELISA. After brief washes of gp120 coated FlashPlate with TBS, [^3H]BMS-853 was added to a final concentration of 16.5 nM in BufferC and the plate was kept at room temperature overnight. The plate was washed once with TBS and then counted in TopCount® Microplate Scintillation counter. Varying concentrations of gp120 were used to show the gp120 dose-dependent binding of [^3H]BMS-853 (FIG. 1).

gp120JRFL [6] = assay: Circular dichroism analysis of gp120 conformational change; set-up: species or system HIV-1
Method: (§2) CD spectra was collected on a Jasco J-720 spectropolarimeter at ambient temperature. Protein concentration in the sample were kept a ˜1 μM, with the exception of sCD4 (1.8 μM) in 20 mM Tris/150 mM NaCl, pH 8.0. Concentration of compound used in the experiments were as indicated.
(§3) Circular Dichroism (CD) analysis. (Method for FIG. 3 results). The CD spectra of purified gp120JRFL (1.2 μM in 5 mM Tris, pH 8.0/150 mM NaCl) were obtained, in the presence and absence of an inhibitor, on a Jasco J-720 spectropolarimeter at ambient (21-23° C.) temperature. Samples containing varying protein-to-compound mole ratios were placed in a quartz cuvette with a 1-mm pathlength. The molar ellipticity (θ) was monitored between 200 nm and 250 nm as the average of 12-20 scans. Soluble CD4 was used as a negative protein controls. Compound, BMS-066, with no anti-HIV activity (EC50>5 μM) was included as a compound control.

sCD4 = target: T1, sCD4 (Homo sapiens, UniProt P01730); assay: Circular dichroism analysis, sCD4 negative protein control; details: sCD4 1.8 μM, compound 3.5 μM, FIG. 3B
T1 construct: purchased ImmunoDiagnostics, Inc. (Woburn, Mass.)
Method: as §2, §3

Compound: O=C(C(=O)N1CCN(C(=O)c2ccccc2)CC1)c1c[nH]c2ccccc12 [BMS-216]
- EC50 [1]: 200 nM
- IC50 (gp120JRFL/CD4): 1800 ± 300 nM

Compound: COc1ccnc2[nH]cc(C(=O)C(=O)N3CCN(C(=O)c4ccccc4)C[C@H]3C)c12 [BMS-806, (R)—N-(benzoyl)-3-methyl-N′-[(4-methoxy-7-azaindol-3-yl)-oxoacetyl]-piperazine]
- EC50 (HIV-1 A0-18): 23.6 nM
- EC50 (HIV-1 Bal; coreceptor CCR5, host Macrophage): 8.4 nM
- EC50 (HIV-1 Bal; coreceptor CCR5, host PM1): 15.5 nM
- EC50 [1]: 0.6 nM
- EC50 (HIV-1 SF-162): 3.46 nM
- EC50 (HIV-1 JRFL): 1.47 nM
- EC50 (HIV-1 LAV): 1.98 nM
- IC50 (gp120JRFL/CD4): 280 nM
- EC50 (HIV-1 RF; Human immunodeficiency virus 1): 6030 nM
- blocking of infection (HIV-1 RF; virus RF): not efficiently blocked
- EC50 (HIV-1 IIIB): 39.4 nM
- EC50 [2]: 0.85 to 75.8 nM
- EC50 (HIV-1 Bru): 3.26 nM
- EC50 (HIV): 1 nM
- Biacore signal on gp120-coated surface (gp120JRFL [3]): intermediate signals
- EC50 (HIV-1 MN; Human immunodeficiency virus 1, Virus MN, coreceptor CXCR4, host MT-2): 844 nM
- blocking of infection (HIV-1 MN; virus MN): not efficiently blocked
- EC50 (HIV-1 SF-2): 26.5 nM
- EC50 (HIV-1 NL4-3): 2.94 nM

Compound: COc1ccc(OC)c2c(C(=O)C(=O)N3CCN(C(=O)c4ccccc4)CC3)c[nH]c12 [[^3H]BMS-853]
- binding to V1V2V3 loop-deleted gp120JRFL [4]: bound significantly less effective
- binding to full-length recombinant gp120JRFL (gp120JRFL [5]): bind effectively

Compound: COc1cnc(-c2cnc(N(C)C)cn2)c2[nH]cc(C(=O)C(=O)N3CCN(C(=O)c4ccccc4)CC3)c12 [BMS-038]
- Biacore response at various concentrations on gp120-coated surface (gp120JRFL [3]; various concentrations): dose-dependent increase of reflective index

Compound: Cc1ccc(C)c2c(C(=O)C(=O)N3CCN(C(=O)c4ccccc4)CC3)c[nH]c12 [BMS-033]
- EC50 (HIV): > 5000 nM
- attenuation of the gp120JRFL CD signal (gp120JRFL [6]; compound at 2 μM, FIG. 3C): did not cause any attenuation

Compound: COc1ncc(OC)c2c(C(=O)C(=O)N3CCN(C(=O)c4ccccc4)CC3)c[nH]c12 [BMS-043]
- EC50 (HIV): 0.8 nM
- attenuation of the protein CD signal (gp120JRFL [6]; gp120JRFL 1.2 μM, inhibitor 2.1 μM): 40%
- Biacore signal on gp120-coated surface (gp120JRFL [3]): intermediate signals
- attenuation of the sCD4 CD signal (sCD4): no attenuation

Compound: COc1ccc(OC)c2c(C(=O)C(=O)N3CCN(C(=O)c4ccccc4)CC3)c[nH]c12 [BMS-853]
- EC50 [1]: 0.1 nM
- IC50 (gp120JRFL/CD4): 24 ± 9 nM
